These are literature values, as cited in patent publication US9974792B2, “Methods for treating cancers” (Gilead Sciences, Inc., priority 2013, dated 2018).

One data set concerns CLL subjects. Conditions: rituximab monotherapy; CLL subjects with similar median age and prior therapies; cited from earlier work.
Data set [1] deals with subjects with B-cell malignancies, CLL/SLL. Conditions: cited from earlier work.

In the case of “rituximab: monoclonal antibody (anti-CD20), monotherapy comparator in CLL subjects”, the “24-week PFS” value with CLL subjects is listed as 46%.
Regarding `COc1cc(Nc2ncc(F)c(Nc3ccc4c(n3)N(COP(=O)(O)O)C(=O)C(C)(C)O4)n2)cc(OC)c1OC` [fostamatinib], in data set [1] (11 subjects with CLL/SLL), the PFS is reported as 6.4 months. In addition, the “overall progression-free survival (PFS)” value in data set [1] (participants treated in the phase 2 portion of the study) is listed as 18 weeks. Also, the Response rate in data set [1] (six subjects with partial lymph-node reduction of at least 50%) is 54.5%.
